{"source": "patent US20040220277A1", "about": "“Enantiomeric amphetamine compositions” (priority 2003, published 2004)", "key": {"Rj: Wistar (Han) rats": {"tested_on": "Rj: Wistar (Han) rats", "experiment": "EEG sleep-wake cycle in conscious freely-moving rats", "type": "in vivo, rat", "protocol": "They were supplied by Elevage Janvier, 53940 Le Genest-Saint-Isle, France.\nImplanted animals were individually placed in transparent perspex boxes in a soundproof, light-controlled, ventilated cabin and were habituated to the recording environment for at least 10 days. Drug-free baseline EEG was recorded for 23 hours. Then the rats were administered vehicle and the EEG recorded for another 23 hours. The next day, rats were treated with one of the 4 amphetamine forms first at the dose of 3 mg/kg, than at the dose of 1 mg/kg. The following variables were measured: latency to the appearance of stable slow-wave sleep (SWS), latency to the first appearance of rapid-eye-movement sleep (REM), the number of REM sleep phases, and the distribution percentage of wake/SWS/REM (sleep architecture).\nTest sessions following treatment were individually compared with corresponding control sessions. As no differences were apparent after vehicle, the 2 control sessions with and without vehicle, were averaged."}, "Rats": {"tested_on": "Rats", "experiment": "Weight gain, food and water intake in rats with 3 hours per day access", "type": "in vivo, rat", "details": "for Body weight gain: once a day dosing, measured every day; for Water intake: once a day, one hour before 3 h access to food and water; for Food intake: over the 3 hours of access each day, 10 day period", "protocol": "Rats were given access to food and water for 3 hours per day. The acclimation period was 10 days. Thereafter, vehicle or doses of l- or d-amphetamine sulphate were administered to the rats once a day one hour before access to food and water. Body weight was measured every day (FIG. 11) before the drug administration and then food intake (FIG. 12) and water intake were measured over the 3 hours each day when the rats had access to the same."}, "Wistar Kyoto Rat (WKY)": {"tested_on": "Wistar Kyoto Rat (WKY)", "experiment": "Behavioural study, multiple Random-Interval/Extinction operant schedule in WKY controls", "type": "in vivo", "details": "single isomers; for General activity level: FIG. 3; for Impulsiveness: FIG. 4", "description": "(§1) Subjects: A total number of 32 male rats, 16 spontaneously hypertensive (SHR) and 16 Wistar/Kyoto (WKY), participated in final part of this study. (Initially, 8 extra rats, 6 SHRs and 2 controls, were trained with a view to select two groups of 16 with the greatest difference in baseline measures. However, there was little difference when comparing all the rats with a selected subgroup—they both separated well.) At the start of testing, the rats were ˜5 wk old and experimentally naive. Young rats were required, as ADHD primarily is a child and adolescent disorder. The SHRs were obtained from Charles River Italy (SHR/Cr1 Ico) and the WKYs from Charles River France (WKY/Nico) as other breeding centers were unable to deliver rats at the time we needed them. At the University of Oslo, the rats were housed individually in 41×25×25 (height) cm transparent cages and had free access to food (BK Standard RM 1 from Beekay Feeds Universal Ltd.).\n(§2) The rats had access to water at all times during the habituation period. However, after completing the habituation period, the rats were deprived of water for 21 hr a day. The rats received water as reinforcers during the experimental session and had free access to water for 90 min after the experimental session. The temperature in the housing area was ˜20° C. The light in the housing area was on from 0700 to 1900 hours. The behavioral training took place between 0900 and 1230 hours seven days a week.\n(§3) Behavioral apparatus: Sixteen Campden Instruments operant chambers were used in the study. The animal working space in eight of the chambers is 25×25×30 (height) cm and 25×25×20 (height) cm in the other eight chambers. The 2.8-W house light and a fan producing a low masking noise were on during the entire experimental session.\n(§4) During training sessions, either one or two retractable levers were used. A 2.8-W cue light was located above each lever. The rats' response consisted of pressing one of the levers with a dead weight of at least 3 g to activate a microswitch. The reinforcers (0.01 ml tap water) were delivered by a liquid dipper located in a small recessed cubicle with a 2.8-W cue light lit when a reinforcer is presented. A 7×5 cm transparent plastic lid separated the cubicle from the rat's working space. The rat could easily open the lid with a light push with the nose or paw. Each chamber was ventilated and placed in a sound-resistant outer housing. A computer and an online system (SPIDER, Paul Fray, Ltd., UK) recorded the behavior and scheduled reinforcers (drops of water).\nBefore the initiation of the study, the rats were randomized and balanced into two groups. Each group of rats consisted of an equal number of SHRs and WKYs. Each rat was assigned to a specific chamber, which it occupied during all sessions. […]"}, "[1]": {"tested_on": "spontaneously hypertensive rat (SHR)", "experiment": "Behavioural study, multiple Random-Interval/Extinction operant schedule in the SHR model of ADHD", "type": "in vivo", "details": "for General activity level (total number of lever presses), overactivity / Impulsiveness (number of responses with short IRTs): d 0.5-1.5 mg/kg, l 1.0-3.0 mg/kg i.p.; for Sustained attention following transformation: transformed data, saline as baseline, FIG. 6", "description": "as §1, §2, §3, §4\nBefore the initiation of the study, the rats were randomized and balanced into two groups. Each group of rats consisted of an equal number of SHRs and WKYs. Each rat was assigned to a specific chamber, which it occupied during all sessions. The rat was returned to its living cage after each session. All animals were run seven days a week.\nResponse acquisition: The training period started with a single 30-min habituation session. During the habituation session, the lid between the working space and the reinforcement cubicle was kept open. No lever was present and no cue light above any lever was lit. The house light was on. From this time on the rats were deprived of water for 21 hr a day; this is a moderate, but sufficient deprivation for motivating the animal.\nThe habituation session was followed by two 30-min magazine training sessions. The lid was taped open, no levers were present, and the house light was on, but the cue lights above the levers were not lit. The computer delivered water on the average every 10s independent of the rat's behavior (a variable-time schedule).\nIn the next two sessions, the rat was trained to open the lid to gain access to the water. The lid was not taped open, no levers were present and the lights above the levers were not activated. The house light was on. Each lid opening was followed by a presentation of a single drop of water. […]"}, "[2]": {"tested_on": "noradrenaline (NA) release, frontal cortex", "experiment": "Basal release of tritiated noradrenaline from rat brain slices in vitro (Brandel system)", "type": "cell-based", "protocol": "The DA and NA release is measured in separate brain areas, i.e., in striatum for DA release (evaluating tritiated dopamine) and in the frontal cortex for NA release (evaluating tritiated noradrenaline), using a Brandel system. The brain slices are loaded with the tritiated monoamine (dopamine or noradrenaline) and then superfused to produce basal neurotransmitter release. The slices are also subjected to 2 short periods of electrical stimulation to effect stimulated transmitter release."}, "[3]": {"details": "between 4 and 8 h after administration, 3 mg/kg"}}}
{"smiles": "CC(N)Cc1ccccc1.NC(CC(=O)O)C(=O)O", "note": "(racemic) [dl-amphetamine aspartate]", "values": [{"measurement": "REM sleep", "setting": "Rj: Wistar (Han) rats; between 4 and 8 h after administration, 1 mg/kg", "value": "reduced"}]}
{"smiles": "C[C@H](N)Cc1ccccc1", "note": "[d-amphetamine]", "values": [{"measurement": "Body weight gain", "setting": "Rats", "value": "dose-related reductions"}, {"measurement": "Water intake", "setting": "Rats", "value": "little effect"}, {"measurement": "Food intake", "setting": "Rats", "value": "decreased food intake over the measured 10 day period"}, {"measurement": "General activity level", "setting": "Wistar Kyoto Rat (WKY)", "value": "unaffected"}, {"measurement": "Impulsiveness", "setting": "Wistar Kyoto Rat (WKY)", "value": "unaffected"}, {"measurement": "Delay to onset of REM sleep compared with the other dose", "setting": "Rj: Wistar (Han) rats; 3 mg/kg", "value": "tended to be longer"}, {"measurement": "Effects on SWS and wake compared with the l-isomer", "setting": "Rj: Wistar (Han) rats; 3 mg/kg, first 4 h of recording", "value": "significantly greater than the l-isomer"}, {"measurement": "SWS", "setting": "Rj: Wistar (Han) rats; [3]", "value": "reduced"}, {"measurement": "Waking", "setting": "Rj: Wistar (Han) rats; [3]", "value": "increased"}, {"measurement": "Duration of effects on the sleep-wake cycle", "setting": "Rj: Wistar (Han) rats; rat, in vivo", "value": "longer lasting"}, {"measurement": "Overall potency on the sleep-wake cycle", "setting": "Rj: Wistar (Han) rats; rat, in vivo", "value": "more potent than l-amphetamine"}, {"measurement": "General activity level (total number of lever presses), overactivity", "setting": "[1]; FIG. 3", "value": "reduced"}, {"measurement": "General activity level (total number of lever presses), overactivity", "setting": "[1]; FIG. 3, listed as D-amphetamine", "value": "more than l-amphetamine"}, {"measurement": "Impulsiveness (number of responses with short IRTs)", "setting": "[1]; FIG. 4", "value": "reduced"}, {"measurement": "Impulsiveness (number of responses with short IRTs)", "setting": "[1]; FIG. 4, listed as D-amphetamine", "value": "more than l-amphetamine"}, {"measurement": "Sustained attention following transformation", "setting": "[1]", "value": "disappeared"}]}
{"smiles": "C[C@@H](N)Cc1ccccc1", "note": "[l-amphetamine]", "values": [{"measurement": "Body weight gain", "setting": "Rats", "value": "dose-related reductions"}, {"measurement": "Water intake", "setting": "Rats", "value": "little effect"}, {"measurement": "Food intake", "setting": "Rats", "value": "decreased food intake over the first 1-2 days only"}, {"measurement": "General activity level", "setting": "Wistar Kyoto Rat (WKY)", "value": "unaffected"}, {"measurement": "Impulsiveness", "setting": "Wistar Kyoto Rat (WKY)", "value": "unaffected"}, {"measurement": "Potency in releasing NA from cortex compared with DA from striatum", "setting": "[2]", "value": "considerably more potent at releasing NA from cortex than DA from striatum"}, {"measurement": "Sustained attention, performance versus saline", "setting": "[1]; 2 mg/kg, T-test with dependent samples, p <0.01", "value": "performed better"}, {"measurement": "General activity level (total number of lever presses), overactivity", "setting": "[1]; FIG. 3", "value": "reduced"}, {"measurement": "Impulsiveness (number of responses with short IRTs)", "setting": "[1]; FIG. 4", "value": "less efficient than d-amphetamine"}, {"measurement": "Sustained attention (percentage of correct lever choices)", "setting": "[1]; low doses, untransformed, FIG. 5", "value": "improved sustained attention more markedly than low doses of d-amphetamine"}, {"measurement": "Sustained attention following transformation", "setting": "[1]", "value": "significant improvement"}]}
